From patent US5944026A, “Tobacco products or materials resembling tobacco products containing natural substances having an antioxidative effect and processes for the preparation thereof” (priority 1994, dated 1999)
Read-outs that look alike come from different tables or passages of the source.

How the values were obtained:
[1] = test system: Salmonella typhimurium, strain TA 98; assay: Ames test (TA98): antimutagenic effect of added substances on mutagenicity of cigarette smoke condensate; format: cell-based; details: graphical representation in figure
Experimental: To detect this antimutagenic action, the Ames test (loc.cit.) was carried out as a meaningful rapid test.
It was ensured in this process that work was carried out in a concentration range which was not toxic for the bacteria.

[2] = Solubility of aromatic substances and the vitamins A and E in filter hardeners; details: for solubility in hardener TEGDA: hardener: TEGDA (triethylene glycol diacetate)
[3] = Solubility/miscibility of aromatic substances, vitamins A and E and β-carotene in natural substances used as solvents; format: physicochemical
[4] = test system: Salmonella typhimurium, strain TA 98; assay: Ames test with S9 activation: smoke condensate of experimental cigarettes with cloves, cinnamon sticks or eugenol; format: cell-based; details: additions to cut tobacco
Experimental: Five versions of filter cigarettes which differ in the composition of the final mixture according to Table 6 and have the same tobacco base mixture were prepared in the same format and same cigarette weight (940 mg). The cloves or cinnamon sticks employed were moistened with steam, rolled and cut before mixing with tobacco.
The experimental cigarettes were smoked under standard conditions (see Example 1).

Compound | mutagenicity of cigarette smoke condensate on addition of the substance [1] | solubility in hardener triacetin [2] [% by weight] | solubility in cinnamaldehyde as a solvent ([3]; solvent: cinnamaldehyde) [% by weight] | solubility in eugenol as a solvent [3] [% by weight] | solubility in jasminealdehyde as a solvent ([3]; solvent: jasminealdehyde) [% by weight] | further results
O=C(O)/C=C/c1ccc(O)c(O)c1 [caffeic acid, Caffeic acid] | reduction of the mutagenicity | – | – | – | – | –
Cc1c(C)c2c(c(C)c1O)CCC(C)(CCCC(C)CCCC(C)CCCC(C)C)O2 (stereo not drawn) [Vitamin E, α-tocopherol] | – | > 10 | – | – | – | –
CCOc1cc(C=O)ccc1O [Ethylvanillin] | – | > 10 | > 10 | > 10 | > 10 | solubility in vitamin E acetate as a solvent [3]: < 1 % by weight; solubility in hardener TEGDA [2]: > 10 % by weight; solubility in hardener eugenol [2]: > 10 % by weight
CC1=C(/C=C/C(C)=C/C=C/C(C)=C/CO)C(C)(C)CCC1 [Vitamin A, retinol] | – | – | – | – | – | solubility in cinnamaldehyde as a solvent [3]: > 10 % by weight; solubility in jasminealdehyde as a solvent [3]: > 10 % by weight
COc1cc2ccc(=O)oc2cc1O [scopoletin, 7-hydroxy-6-methoxycoumarin] | reduction of the mutagenicity | – | – | – | – | –
Cc1c(C)c2c(c(C)c1OC(=O)CCC(=O)O)CC[C@@](C)(CCC[C@H](C)CCC[C@H](C)CCCC(C)C)O2 [Vitamin E succinate, tocopherol succinate] | – | < 1 | > 10 | > 10 | > 10 | solubility in hardener TEGDA [2]: < 1 % by weight; solubility in hardener eugenol [2]: 10 % by weight
CC1=C(/C=C/C(C)=C/C=C/C(C)=C/C=C/C=C(C)/C=C/C=C(C)/C=C/C2=C(C)CCCC2(C)C)C(C)(C)CCC1 [β-carotene] | – | – | > 1 | < 1 | < 1 | solubility in vitamin E acetate as a solvent [3]: < 1 % by weight
COc1cc(/C=C/C(=O)CC(=O)/C=C/c2ccc(O)c(OC)c2)ccc1O [curcumin, Curcumin] | reduction of the mutagenicity | – | – | – | – | –
C=CCc1ccc(O)c(OC)c1 [eugenol, Eugenol] | reduction of the mutagenicity | – | – | – | – | mutagenic effect of the smoke condensate (in words) [4]: decrease the mutagenic effect of the smoke condensate
Cc1ccc2oc(=O)ccc2c1 [6-Methylcoumarin] | – | – | – | – | – | solubility in cinnamaldehyde as a solvent [3]: > 10 % by weight; solubility in jasminealdehyde as a solvent [3]: > 10 % by weight
